Columns and labels:
[1] = tested on: L929; test: TNF-gamma activity on L929 cells (MTS cytotoxicity/proliferation, morphology); type: cell-based, mouse; parameters: key to Proliferation / Differentiation / Adhesion: The numbers of “+” indicate the relative level of activities.; ++: The numbers of “+” indicate the relative level of activities.; +++: The numbers of “+” indicate the relative level of activities.; “−” indicates no detected activity at the concentration range tested
Description: (§1) The adherent target cells were prepared from confluent cultures by trypsinization in PBS, and non-adherent target cells were harvested from stationary cultures and washed once with medium. Target cells were suspended at 3×10^5 cells/ml in medium containing 10% FCS. 0.1 ml aliquots were dispensed into 96-well flat-bottomed microtiter plates containing 0.1 ml serially diluted test samples of cells (WEHI 164 and L929). Incubation was continued for 70 hours. TNF-alpha, TNF-beta and bacterially-produced TNF-gamma were added at a 0.5 μg/ml concentration. The cytotoxicity and proliferation activity was quantified using an MTS assay performed by the addition of 20 μl of MTS and phenazine methosulfate (PMS) solution to each well. After a three hour incubation, the OD at 492 nm was measured by an ELISA plate reader. The OD492 is proportional to the number of viable cells in the wells. The percent of cytotoxicity was calculated as follows: […]. The photographs were taken after 72 hours.
(§2) In the graph of FIG. 7B, the assay was performed as described above, however, increasing amounts of TNF-alpha, TNF-beta and TNF-gamma were added to the cultures.

[2] = tested on: WEHI 164; test: TNF-gamma activity on WEHI 164 cells (MTS cytotoxicity/proliferation, morphology); type: cell-based, mouse; parameters: key to Proliferation / Differentiation / Adhesion: The numbers of “+” indicate the relative level of activities.; ++: The numbers of “+” indicate the relative level of activities.; +++: The numbers of “+” indicate the relative level of activities.; “−” indicates no detected activity at the concentration range tested
Description: as §1, §2

[3] = tested on: Primary HUVEC; test: TNF-gamma activity on primary HUVEC; type: cell-based, human; parameters: key: The numbers of “+” indicate the relative level of activities.; ++: The numbers of “+” indicate the relative level of activities.; +++: The numbers of “+” indicate the relative level of activities.; “−” indicates no detected activity at the concentration range tested
[4] = tested on: 293; test: TNF-gamma activity on 293 cells; type: cell-based; parameters: key: The numbers of “+” indicate the relative level of activities.; ++: The numbers of “+” indicate the relative level of activities.; +++: The numbers of “+” indicate the relative level of activities.; “−” indicates no detected activity at the concentration range tested; conditions: 293, human embryonal kidney
[5] = tested on: WEHI 164 cells; test: Measurement of apoptosis (nucleosome ELISA); type: cell-based, mouse; conditions: increasing amounts (FIG. 12)
Description: In a first incubation step, anti-histone antibody was fixed adsorptively on the wall of a microtiter plate module. Subsequently, non-specific binding sites on the wall were saturated by treatment with incubation buffer (e.g., blocking solution). During the second incubation step, the nucleosomes contained in the WEHI 164 cell sample treated with the TNF-alpha, TNF-beta or bacterially-produced TNF-gamma were bound via their histone components to the immobilized anti-histone antibody. In the third incubation step, anti-DNA-peroxidase (POD) reacted with the DNA component of the nucleosomes. After removal of all unbound peroxidase conjugate by a washing step, the amount of peroxidase retained in the immunocomplex was determined spectrophotometrically using the substrate ABTS (2,2′-azino-di-[3-ethylbenzthiazoline sulfonate]). Anti-histone antibody reacted with the histones H1, H2A, H2B, H3, and H4 from the sample. Anti-DNA POD antibody bound to single- and double-stranded DNA. Therefore, the ELISA allowed the detection of mono- and oligonucleosomes and may be applied to measure apoptotic cell death. The level of cell death was measured by the amount of cytoplasmic histone-associated DNA fragments which was indicated by the ratio of the absorbances observed at 405 and 490 nm (A405/A490). […]

[6] = tested on: NF-kappaB p65 DNA-binding in U-937 cells; test: NF-kappaB activation (EMSA); type: cell-based
Source text: Activation of cellular NF-kappaB is preceded by the phosphorylation, ubiquitination, and ultimate degradation of an endogenous NF-kappaB inhibitor molecule designated IkBa. Degradation of the inhibitor allows the p65 subunit of NF-kappaB to translocate to the nucleus where it can act as a transcriptional regulator. For this reason, a electrophoretic mobility shift analysis (EMSA) is an appropriate method for analyzing activation of cellular NF-kappaB by treatment of cultured cells with TNF-gamma.
In these analyses cells (2×10^6 per ml) were treated with different concentrations (0.1-1.0 μg/ml) of bacterially-produced TNF-gamma at 37° C. for 12 hours. Nuclear extracts were then prepared from the cultured cells and EMSA was performed as is well-known in the art and essentially as described (Singh, S. and Aggarwal, B. B. J. Biol. Chem. 270:10631-10636 (1995)).

[7] = tested on: c-Jun kinase (JNK) in U-937 cells; test: JNK kinase activation assay; type: cell-based; conditions: 0.1 to 3.0 μg/ml
Description: The cellular kinase designated c-Jun kinase (JNK) is an early event in cellular activation. The activation of JNK by TNF-gamma was analyzed as an additional method of determining cellular reaction to treatment with TNF-gamma. The JNK kinase activation assay is well-known by one of skill in the art and has been described by Derijard and colleagues (Cell 76:1025-1029 (1994)). After treatment of U-937 cells with 0.1 to 3.0 μg/ml of TNF-gamma for 12 hours, the cells were harvested and assayed for JNK kinase activity. By 6 and 12 hours, JNK activity had increased 2- and 3.6-fold, respectively.

## TNF-gamma: new member of the tumor necrosis factor family; the term refers to TNF-gamma-alpha and/or TNF-gamma-beta
[1]; L929, 0.5 μg/ml, photographs after 72 hours (FIG. 8)
  morphology change (killed cells): induced a morphology change which appeared as dark round cells (indicating killed cells)
[1]; L929, mouse fibroblast
  Adhesion: −−
  Differentiation: −−
  Proliferation: −
[1]; MTS assay, increasing amounts added
  inhibition of L929 cell growth: but not of the fibroblast cell line L929
[2]; MTS assay, increasing amounts added (FIG. 7B)
  inhibition of WEHI 164 cell growth: dose-dependent inhibitor of the growth
[2]; WEHI 164, 0.5 μg/ml, photographs after 72 hours (FIG. 7A)
  morphology change (killed cells): induced a morphology change which appeared as dark round cells (indicating killed cells)
[2]; WEHI 164, mouse fibrosarcoma
  Adhesion: −−
  Differentiation: −−
  Proliferation: −
[3]
  Differentiation: −?
  Proliferation: ++
[4]
  Adhesion: −−
  Differentiation: −−
  Proliferation: ++
[5]
  apoptosis (cytoplasmic histone-associated DNA fragments, A405/A490): increasingly high levels of apoptosis
[6]; 12 hours
  concentration giving peak activation of DNA-binding by p65: 1 µg/mL
  lowest concentration giving an observable increase in p65 DNA-binding: 0.2 µg/mL
[6]; after initiation of treatment
  time span of p65 DNA-binding activation over basal levels: from 30 minutes to 18 hours
[7]; by 6 hours
  increase in JNK activity: 2 fold
[7]; by 12 hours
  increase in JNK activity: 3.6 fold

Reference: patent publication US20030129189A1, “Tumor necrosis factor-gamma” (priority 1994, published 2003)
